Measurements: patent EP1247803A2, “Indolinone compounds suitable for modulation of protein kinases” (Sugen, Inc., priority 1996, dated 1998)

Assays:
FLK-1 receptor = target: T1, FLK-1 receptor (Mus musculus, UniProt P35918); assay: FLK-1 ELISA (kinase activity of the FLK-1 receptor in FLK-1/NIH3T3 cells, VEGF stimulated); assay type: cell-based; design: concentration or dose not given beside the values
T1 construct: expressed in transfected cells; host or cells: NIH3T3 C7#3
Summary of the method: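 An ELISA using affinity-purified rabbit anti-FLK-1 antiserum on anti-rabbit IgG-coated plates measured VEGF-stimulated FLK-1 kinase activity. NIH3T3 C7#3 cells carrying FLK-1 were serum-starved (0.1% FBS) overnight, then exposed to compound (final 1:200 dilution, 0.5% DMSO) for two hours at 37 °C.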

PDGF-R = PDGF-R (Homo sapiens, UniProt P09619); assay: PDGF-R ELISA; assay type: cell-based
Text: A PDGF-R ELISA is described in International Patent Publication No. WO 96/40116, published December 19, 1996 by Tang et al.

T1 sequence (P35918 20-1345): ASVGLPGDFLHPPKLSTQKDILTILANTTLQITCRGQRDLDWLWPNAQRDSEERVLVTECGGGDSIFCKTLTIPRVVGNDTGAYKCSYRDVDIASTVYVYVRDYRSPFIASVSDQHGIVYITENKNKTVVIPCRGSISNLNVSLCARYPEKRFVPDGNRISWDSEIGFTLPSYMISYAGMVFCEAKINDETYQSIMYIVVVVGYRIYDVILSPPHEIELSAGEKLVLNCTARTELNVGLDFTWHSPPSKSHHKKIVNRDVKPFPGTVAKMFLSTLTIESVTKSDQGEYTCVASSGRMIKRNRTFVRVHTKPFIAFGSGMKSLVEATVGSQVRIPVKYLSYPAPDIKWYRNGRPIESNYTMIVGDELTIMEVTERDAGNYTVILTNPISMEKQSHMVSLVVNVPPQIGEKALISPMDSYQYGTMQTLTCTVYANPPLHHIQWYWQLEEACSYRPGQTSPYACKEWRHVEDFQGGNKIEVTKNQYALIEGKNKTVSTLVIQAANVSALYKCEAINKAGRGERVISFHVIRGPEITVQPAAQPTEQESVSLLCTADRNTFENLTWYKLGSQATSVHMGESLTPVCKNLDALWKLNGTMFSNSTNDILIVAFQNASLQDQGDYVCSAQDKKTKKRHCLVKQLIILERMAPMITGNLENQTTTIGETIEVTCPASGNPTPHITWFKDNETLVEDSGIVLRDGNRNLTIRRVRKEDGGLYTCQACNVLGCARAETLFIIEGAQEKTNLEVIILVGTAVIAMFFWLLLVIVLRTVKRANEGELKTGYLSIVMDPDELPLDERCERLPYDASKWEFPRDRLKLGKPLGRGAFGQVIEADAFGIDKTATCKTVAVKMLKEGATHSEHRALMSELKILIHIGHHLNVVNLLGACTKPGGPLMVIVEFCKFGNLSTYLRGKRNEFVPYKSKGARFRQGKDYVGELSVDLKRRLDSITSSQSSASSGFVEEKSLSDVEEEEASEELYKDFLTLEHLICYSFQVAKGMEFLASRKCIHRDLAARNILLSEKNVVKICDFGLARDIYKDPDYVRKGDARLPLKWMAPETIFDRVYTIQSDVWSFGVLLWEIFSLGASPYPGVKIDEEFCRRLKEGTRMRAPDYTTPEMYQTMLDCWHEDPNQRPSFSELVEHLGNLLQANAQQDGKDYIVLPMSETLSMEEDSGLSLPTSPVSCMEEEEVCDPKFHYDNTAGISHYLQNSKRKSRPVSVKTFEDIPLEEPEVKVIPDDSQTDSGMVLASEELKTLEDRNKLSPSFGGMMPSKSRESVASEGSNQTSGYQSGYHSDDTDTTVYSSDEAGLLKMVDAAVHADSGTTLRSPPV
Sequence of PDGF-R (P09619 33-1106, species assumed): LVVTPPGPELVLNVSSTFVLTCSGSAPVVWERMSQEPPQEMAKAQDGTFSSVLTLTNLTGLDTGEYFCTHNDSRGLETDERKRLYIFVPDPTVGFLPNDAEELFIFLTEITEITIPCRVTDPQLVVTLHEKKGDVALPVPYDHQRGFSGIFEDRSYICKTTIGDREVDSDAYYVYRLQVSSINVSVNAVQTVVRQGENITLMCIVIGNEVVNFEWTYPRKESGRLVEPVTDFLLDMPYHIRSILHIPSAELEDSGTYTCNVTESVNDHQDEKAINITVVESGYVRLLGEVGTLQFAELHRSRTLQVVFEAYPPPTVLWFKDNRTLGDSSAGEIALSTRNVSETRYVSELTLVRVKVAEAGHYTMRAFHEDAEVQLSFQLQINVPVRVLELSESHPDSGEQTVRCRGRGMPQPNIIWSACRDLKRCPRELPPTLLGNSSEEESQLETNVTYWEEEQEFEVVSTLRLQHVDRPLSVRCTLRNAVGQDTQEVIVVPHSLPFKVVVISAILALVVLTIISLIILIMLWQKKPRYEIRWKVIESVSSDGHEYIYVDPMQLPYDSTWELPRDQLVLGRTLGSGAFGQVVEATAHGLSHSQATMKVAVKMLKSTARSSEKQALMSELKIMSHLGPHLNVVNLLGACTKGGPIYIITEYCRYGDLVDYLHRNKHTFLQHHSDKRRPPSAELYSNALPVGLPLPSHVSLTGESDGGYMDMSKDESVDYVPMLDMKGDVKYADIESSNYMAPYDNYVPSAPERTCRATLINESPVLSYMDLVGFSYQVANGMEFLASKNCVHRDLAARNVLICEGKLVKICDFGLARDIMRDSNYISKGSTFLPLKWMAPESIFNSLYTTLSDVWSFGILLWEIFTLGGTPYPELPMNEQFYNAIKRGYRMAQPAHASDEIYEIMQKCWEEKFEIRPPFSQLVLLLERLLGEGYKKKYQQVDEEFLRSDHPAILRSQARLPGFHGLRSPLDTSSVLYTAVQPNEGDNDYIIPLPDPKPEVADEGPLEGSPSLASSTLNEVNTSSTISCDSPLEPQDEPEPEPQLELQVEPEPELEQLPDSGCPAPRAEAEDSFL

| Compound | Fik Kinase %Inhibition (FLK-1 receptor) | PDGF Kinase %Inhibition (PDGF-R) |
| --- | --- | --- |
| O=C1Nc2c(Br)cc(Br)cc2C1=Cc1ccc(Br)cc1 [10717/A08] | -5.2% |  |
| COC(=O)c1[nH]c(C)c(C=C2C(=O)Nc3ccc(I)cc32)c1C(=O)OC [10718/B07] | 17.7% |  |
| O=C1Nc2ccc(I)cc2C1=Cc1ccc(Cl)c([N+](=O)[O-])c1 [10718/B08] | 5.4% |  |
| Cc1c(O)ccc(C=C2C(=O)Nc3ccc(I)cc32)c1O [10718/B09] | -14.7% |  |
| O=C1Nc2ccc(I)cc2C1=Cc1ccco1 [10718/B10] | 20.1% |  |
| O=C1Nc2ccc(I)cc2C1=Cc1ccc([N+](=O)[O-])o1 [10718/B11] | 4.5% |  |
| CCOC(=O)c1c(C)[nH]c(C=C2C(=O)Nc3ccc(Br)c(C)c32)c1C [10718/C02] | 26.2% |  |
| COc1cc(Br)c(O)c(C=C2C(=O)Nc3ccc(Br)c(C)c32)c1 [10718/C03] | -13.9% |  |
| Cc1c(Br)ccc2c1C(=Cc1ccc3ccccc3c1O)C(=O)N2 [10718/C04] | 15.3% |  |
| O=C1Nc2ccc(S(=O)(=O)Nc3ccc(C(F)(F)F)cc3)cc2C1=Cc1cccnc1 [10729/E08] | 10.9% | 11.0% |
| O=C1Nc2ccc(S(=O)(=O)Nc3ccc(C(F)(F)F)cc3)cc2C1=Cc1ccncc1 [10729/E09] | 6.9% | -11.7% |
| O=C1Nc2ccc(S(=O)(=O)Nc3ccc(C(F)(F)F)cc3)cc2C1=Cc1ccc(N2CCCC2)cc1 [10729/E10] | 5.7% | 11.8% |
| O=C1Nc2ccc(S(=O)(=O)Nc3ccc(C(F)(F)F)cc3)cc2C1=CC1C=CCCC1 (centres unmarked) [10729/E11] | 70.9% | 22.4% |
| COc1ccc2ccccc2c1C=C1C(=O)Nc2ccc(CCCl)cc21 [10729/G02] | 18.8% | 16.7% |
| COc1ccc(C=C2C(=O)Nc3ccc(CCCl)cc32)c2ccccc12 [10729/G03] | 10.4% | 13.7% |
| CSc1ccc(C=C2C(=O)Nc3ccc(CCCl)cc32)cc1 [10729/G04] | 12.2% | 1.6% |
| Cc1ccsc1C=C1C(=O)Nc2ccc(CCCl)cc21 [10729/G05] | 8.7% | 9.9% |
| O=C1Nc2ccc(CCCl)cc2C1=Cc1cccc(Oc2ccccc2)c1 [10729/G06] | 10.9% | 11.8% |
| O=C1Nc2ccc(CCCl)cc2C1=Cc1ccccn1 [10729/G07] | -2.5% | 14.4% |
| O=C1Nc2ccc(CCCl)cc2C1=Cc1cccnc1 [10729/G08] | -1.0% | 0.8% |
| O=C1Nc2ccc(CCCl)cc2C1=Cc1ccncc1 [10729/G09] | -3.3% | 1.9% |
| O=C1Nc2ccc(CCCl)cc2C1=Cc1ccc(N2CCCC2)cc1 [10729/G10] | -9.1% | -13.2% |

| Compound | Fik Kinase %Inhibition (FLK-1 receptor) | PDGF Kinase %Inhibition (PDGF-R) |
| --- | --- | --- |
| O=C1Nc2ccc(CCCl)cc2C1=CC1C=CCCC1 (centres unmarked) [10729/G11] | -0.5% | 3.8% |
| COc1ccc(C=C2C(=O)Nc3c(Br)cc(Br)cc32)c(OC)c1OC [10730/A02] | -3.7% | -23.1% |
| COc1cc(OC)c(OC)cc1C=C1C(=O)Nc2c(Br)cc(Br)cc21 [10730/A03] | -3.2% | -11.2% |
| COc1cc(C=C2C(=O)Nc3c(Br)cc(Br)cc32)cc(OC)c1OC [10730/A04] | -9.9% | -5.1% |
| CC(=O)n1cc(C=C2C(=O)Nc3c(Br)cc(Br)cc32)c2ccccc21 [10730/A05] | -10.8% | 2.8% |
| O=C1Nc2c(Br)cc(Br)cc2C1=Cc1coc2ccc(Cl)cc2c1=O [10730/A06] | -7.0% | 6.3% |
| O=C1Nc2c(Br)cc(Br)cc2C1=Cc1ccc(-c2ccccc2Cl)o1 [10730/A07] | -18.9% | -23.9% |
| O=C1Nc2c(Br)cc(Br)cc2C1=Cc1cc2ccccc2nc1Cl [10730/A08] | -2.9% | -6.0% |
| O=C1Nc2c(Br)cc(Br)cc2C1=Cc1coc2c(Br)cc(Br)cc2c1=O [10730/A09] | 1.9% | -4.7% |
| COC1CC(C=C2C(=O)Nc3c(Br)cc(Br)cc32)C(OC)O1 (centres unmarked) [10730/A10] | 0.5% | 1.0% |
| Cc1cc(C=C2C(=O)Nc3c(Br)cc(Br)cc32)oc1C [10730/A11] | 6.8% | -6.4% |
| COc1ccc(C=C2C(=O)Nc3ccc(I)cc32)c(OC)c1OC [10730/B02] | 5.0% | 5.4% |
| COc1cc(OC)c(OC)cc1C=C1C(=O)Nc2ccc(I)cc21 [10730/B03] | -0.5% | 17.3% |
| COc1cc(C=C2C(=O)Nc3ccc(I)cc32)cc(OC)c1OC [10730/B04] | 12.8% | 7.2% |
| CC(=O)n1cc(C=C2C(=O)Nc3ccc(I)cc32)c2ccccc21 [10730/B05] | -0.5% | -2.9% |
| O=C1Nc2ccc(I)cc2C1=Cc1coc2ccc(Cl)cc2c1=O [10730/B06] | 2.4% | 7.6% |
| O=C1Nc2ccc(I)cc2C1=Cc1ccc(-c2ccccc2Cl)o1 [10730/B07] | 0.6% | 2.4% |
| O=C1Nc2ccc(I)cc2C1=Cc1cc2ccccc2nc1Cl [10730/B08] | 4.4% | 0.2% |
| O=C1Nc2ccc(I)cc2C1=Cc1coc2c(Br)cc(Br)cc2c1=O [10730/B09] | 9.4% | 15.1% |
| COC1CC(C=C2C(=O)Nc3ccc(I)cc32)C(OC)O1 (centres unmarked) [10730/B10] | 15.2% | 19.0% |
| Cc1cc(C=C2C(=O)Nc3ccc(I)cc32)oc1C [10730/B11] | 1.9% | -13.9% |
| COc1ccc(C=C2C(=O)Nc3ccc(Br)c(C)c32)c(OC)c1OC [10730/C02] | 48.8% | 26.5% |

| Compound | Fik Kinase %Inhibition (FLK-1 receptor) | PDGF Kinase %Inhibition (PDGF-R) |
| --- | --- | --- |
| COc1cc(OC)c(OC)cc1C=C1C(=O)Nc2ccc(Br)c(C)c21 [10730/C03] | 25.5% | 36.5% |
| COc1cc(C=C2C(=O)Nc3ccc(Br)c(C)c32)cc(OC)c1OC [10730/C04] | 46.1% | 15.5% |
| CC(=O)n1cc(C=C2C(=O)Nc3ccc(Br)c(C)c32)c2ccccc21 [10730/C05] | 11.4% | 8.5% |
| Cc1c(Br)ccc2c1C(=Cc1coc3ccc(Cl)cc3c1=O)C(=O)N2 [10730/C06] | 5.3% | 7.6% |
| Cc1c(Br)ccc2c1C(=Cc1ccc(-c3ccccc3Cl)o1)C(=O)N2 [10730/C07] | 7.3% | 1.0% |
| Cc1c(Br)ccc2c1C(=Cc1cc3ccccc3nc1Cl)C(=O)N2 [10730/C08] | -2.3% | 8.5% |
| Cc1c(Br)ccc2c1C(=Cc1coc3c(Br)cc(Br)cc3c1=O)C(=O)N2 [10730/C09] | 14.0% | 18.1% |
| COC1CC(C=C2C(=O)Nc3ccc(Br)c(C)c32)C(OC)O1 (centres unmarked) [10730/C10] | 15.4% | 44.4% |
| Cc1cc(C=C2C(=O)Nc3ccc(Br)c(C)c32)oc1C [10730/C11] | -8.0% | 16.4% |
| CNS(=O)(=O)c1ccc2c(c1)C(=Cc1ccc(OC)c(OC)c1OC)C(=O)N2 [10730/D02] | 12.4% | 24.3% |
| CNS(=O)(=O)c1ccc2c(c1)C(=Cc1cc(OC)c(OC)cc1OC)C(=O)N2 [10730/D03] | 8.4% | 19.0% |
| CNS(=O)(=O)c1ccc2c(c1)C(=Cc1cc(OC)c(OC)c(OC)c1)C(=O)N2 [10730/D04] | 9.1% | 20.8% |
| CNS(=O)(=O)c1ccc2c(c1)C(=Cc1cn(C(C)=O)c3ccccc13)C(=O)N2 [10730/D05] | 11.9% | -1.6% |
| CNS(=O)(=O)c1ccc2c(c1)C(=Cc1coc3ccc(Cl)cc3c1=O)C(=O)N2 [10730/D06] | 5.8% | -2.0% |
| CNS(=O)(=O)c1ccc2c(c1)C(=Cc1ccc(-c3ccccc3Cl)o1)C(=O)N2 [10730/D07] | 8.8% | 5.0% |
| CNS(=O)(=O)c1ccc2c(c1)C(=Cc1cc3ccccc3nc1Cl)C(=O)N2 [10730/D08] | 8.6% | 12.9% |
| CNS(=O)(=O)c1ccc2c(c1)C(=Cc1coc3c(Br)cc(Br)cc3c1=O)C(=O)N2 [10730/D09] | 9.8% | -1.6% |
| CNS(=O)(=O)c1ccc2c(c1)C(=CC1CC(OC)OC1OC)C(=O)N2 (centres unmarked) [10730/D10] | -15.3% | -3.3% |
| CNS(=O)(=O)c1ccc2c(c1)C(=Cc1cc(C)c(C)o1)C(=O)N2 [10730/D11] | 7.7% | -0.7% |
| COc1ccc(C=C2C(=O)Nc3ccc(S(=O)(=O)Nc4ccc(C(F)(F)F)cc4)cc32)c(OC)c1OC [10730/E02] | 24.8% | 16.4% |
